In the supplement of paper PMC10307832:

Legend:
Assay in all cases: relative viability (nuclei count vs DMSO), 5 days (fraction); higher = more cells survive
[1] = compound: CC1=CN2C(=O)C=C(N=C2C(=C1)C(C)NC3=CC=CC=C3)N4CCOCC4 [TGX 221] + CCNC(=O)c1noc(-c2cc(C(C)C)c(O)cc2O)c1-c1ccc(CN2CCOCC2)cc1 [Luminespib] (partner 0.01 µM)
In short: (§1)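 Relative viability was taken as the ratio of nuclei in treated wells to nuclei in vehicle wells. Lung cancer cell lines in 1536-well plates received compounds by pin tool one day after seeding, either one drug alone or a fixed anchor-drug dose plus five library-drug doses (not always all listed) in √10 steps. Nuclei were counted on 4× images after 5 days of treatment, and values are medians of duplicate plates.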

[2] = compound: O=C(CCCCCCNC(=O)c1cnc(N(c2ccccc2)c2ccccc2)nc1)NO [Ricolinostat] + CCNC(=O)c1noc(-c2cc(C(C)C)c(O)cc2O)c1-c1ccc(CN2CCOCC2)cc1 [Luminespib] (partner 0.01 µM)
In short: as §1

[3] = compound: O=C(CCCCCCNC(=O)c1cnc(N(c2ccccc2)c2ccccc2)nc1)NO [Ricolinostat] + C[C@@H](Oc1cc(-c2cnn(C3CCNCC3)c2)cnc1N)c1c(Cl)ccc(F)c1Cl [Crizotinib] (partner 1 µM)
In short: as §1

[4] = compound: O=C(CCCCCCNC(=O)c1cnc(N(c2ccccc2)c2ccccc2)nc1)NO [Ricolinostat] + N=C(N)NC(=N)NCCc1ccccc1 [Phenformin] (partner 250 µM)
In short: as §1

Cell Line | relative viability ([1]; first compound 0.08 µM) | relative viability ([1]; first compound 0.253 µM) | relative viability ([1]; first compound 0.8 µM) | relative viability ([1]; first compound 2.53 µM) | relative viability ([1]; first compound 8 µM) | relative viability ([2]; first compound 0.08 µM) | relative viability ([2]; first compound 0.253 µM) | relative viability ([2]; first compound 0.8 µM) | relative viability ([2]; first compound 2.53 µM) | relative viability ([3]; first compound 0.08 µM) | relative viability ([3]; first compound 0.253 µM) | relative viability ([3]; first compound 0.8 µM) | relative viability ([3]; first compound 2.53 µM) | relative viability ([4]; first compound 0.08 µM) | relative viability ([4]; first compound 0.253 µM) | relative viability ([4]; first compound 0.8 µM) | relative viability ([4]; first compound 2.53 µM)
NCI-H1666 | 1.08 | 0.977 | 1.03 | 1.02 | 0.975 | 0.969 | 1.04 | 0.976 | 0.836 | 0.767 | 1.16 | 0.944 | 0.776 | 0.481 | 0.572 | 0.547 | 0.521
NCI-H1734 | 0.232 | 0.178 | 0.202 | 0.17 | 0.18 | 0.197 | 0.19 | 0.185 | 0.178 | 0.561 | 0.792 | 0.706 | 0.581 | 0.35 | 0.452 | 0.351 | 0.466
NCI-H1755 | 0.441 | 0.65 | 0.33 | 0.394 | 0.258 | 0.489 | 0.528 | 0.442 | 0.752 | 0.786 | – | 0.893 | 0.79 | 0.45 | 0.6 | 0.608 | 0.604
NCI-H1915 | 0.726 | 0.747 | 0.745 | 0.757 | 0.725 | 0.71 | 0.79 | 0.784 | 0.669 | 0.853 | 0.868 | 0.882 | 0.809 | 0.324 | 0.358 | 0.347 | 0.363
NCI-H1944 | 0.649 | 0.742 | 0.795 | 0.587 | 0.399 | 0.663 | 0.686 | 0.629 | 0.57 | 1.02 | 0.95 | 0.878 | 0.58 | 0.181 | 0.18 | 0.174 | 0.151
NCI-H1975 | 0.151 | 0.2 | 0.138 | 0.2 | 0.145 | 0.243 | 0.227 | 0.186 | 0.179 | 1.01 | 0.954 | – | 0.884 | 0.377 | 0.413 | 0.396 | 0.401
NCI-H1993 | 0.781 | 0.711 | 0.724 | 0.869 | 0.805 | – | 0.941 | 0.87 | 0.724 | 0.798 | 0.854 | 0.923 | 0.964 | – | 0.48 | 0.508 | 0.339
NCI-H2009 | 1.05 | 1.02 | 1.09 | 1.02 | 0.665 | 0.99 | 0.927 | 0.91 | 0.84 | 1.02 | 1.04 | 0.938 | 0.888 | 0.455 | 0.46 | 0.446 | 0.43
NCI-H2023 | 0.711 | 0.555 | 0.685 | 0.603 | 0.386 | 0.761 | 0.434 | 0.752 | 0.665 | 0.567 | 0.715 | 0.605 | 0.508 | – | 0.403 | 0.382 | 0.344
NCI-H2085 | 0.518 | 0.361 | 0.335 | 0.223 | 0.319 | – | 0.447 | 0.37 | 0.357 | – | 0.81 | 0.819 | 0.848 | – | 0.705 | 0.66 | 0.58
NCI-H2087 | 0.118 | 0.16 | 0.151 | 0.15 | 0.166 | – | 0.205 | 0.15 | 0.159 | 0.891 | 0.791 | 0.709 | 0.688 | – | 0.441 | 0.405 | 0.239
NCI-H2126 | 0.909 | 0.832 | 0.842 | 0.764 | 0.808 | – | 0.919 | 1.01 | 0.862 | 0.862 | 0.945 | 1.06 | 1.01 | – | 0.533 | 0.521 | 0.499
NCI-H2170 | 0.67 | 0.638 | 0.541 | 0.593 | 0.639 | 0.616 | 0.717 | 0.661 | 0.953 | 1.16 | 1.17 | 1.16 | 1.23 | 0.394 | 0.426 | 0.407 | 0.373
NCI-H2228 | 0.123 | 0.146 | 0.108 | 0.136 | 0.153 | 0.157 | 0.115 | 0.167 | 0.15 | 0.408 | 0.475 | 0.546 | 0.549 | 0.255 | 0.341 | 0.355 | 0.342
NCI-H2347 | 0.595 | 0.335 | 0.437 | 0.325 | 0.274 | 0.424 | 0.487 | 0.573 | 0.364 | 0.618 | 0.675 | 0.673 | 0.581 | 0.295 | 0.32 | 0.337 | 0.302
NCI-H2405 | 0.622 | 0.533 | 0.599 | 0.623 | 0.47 | 0.615 | 0.929 | 0.69 | 0.874 | 0.735 | 0.804 | 0.838 | 0.876 | 0.356 | 0.44 | 0.416 | 0.358
